In patent US12655116B2, “Substituted isophthalic acid diamides” (Bayer Aktiengesellschaft, priority 2020, dated 2026):

Legend:
ABUTH [1] = assay: Pre-emergence herbicidal action against ABUTH; type: in vivo, Abutilon theophrasti; conditions: for Pre-emergence action against ABUTH (herbicidal activity): 80 g/ha, scored visually after 3 weeks vs untreated controls (100% = plants have died, 0% = like control plants); for Pre-emergence action against ABUTH (herbicidal activity in percent): dosage 20 g/ha, scored visually after 3 weeks vs untreated controls, 100% = plants have died, 0% = like control plants
In short: (§1)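 Seeds sown in sandy loam, soil-covered; compound sprayed on soil surface pre-emergence. Application: WP/EC, 600–800 l/ha, 0.2% wetting agent. Readout: visual % damage at 3 weeks.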

ALOMY = assay: Pre-emergence herbicidal action against ALOMY; type: in vivo, Alopecurus myosuroides; conditions: 80 g/ha, pre-emergence, scored visually after 3 weeks vs untreated controls (100% = plants have died, 0% = like control plants)
In short: as §1

AMARE [2] = assay: Pre-emergence herbicidal action against AMARE; type: in vivo, Amaranthus retroflexus
In short: as §1

ECHCG [3] = assay: Pre-emergence herbicidal action against ECHCG; type: in vivo, Echinochloa crus-galli; conditions: 80 g/ha
In short: as §1

MATIN [4] = assay: Pre-emergence herbicidal action against MATIN; type: in vivo, Matricaria inodora
In short: as §1

PHBPU [5] = assay: Pre-emergence herbicidal action against PHBPU; type: in vivo, Pharbitis purpurea; conditions: dosage 80 g/ha
In short: as §1

POLCO = assay: Pre-emergence herbicidal action against POLCO; type: in vivo, Polygonum convolvulus; conditions: dosage 80 g/ha
In short: as §1

SETVI [6] = assay: Pre-emergence herbicidal action against SETVI; type: in vivo, Setaria viridis
In short: as §1

VERPE = assay: Pre-emergence herbicidal action against VERPE; type: in vivo, Veronica persica; conditions: dosage 80 g/ha
In short: as §1

VIOTR = assay: Pre-emergence herbicidal action against VIOTR; type: in vivo, Viola tricolor
In short: as §1

DIGSA [7] = assay: Pre-emergence herbicidal action against DIGSA; type: in vivo, Digitaria sanguinalis
In short: as §1

AMARE [8] = assay: Post-emergence herbicidal action against AMARE; type: in vivo, Amaranthus retroflexus; conditions: 20 g/ha, visual assessment about 3 weeks after treatment, 100% = plants have died, 0% = like control plants
In short: (§2)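 Sandy loam, greenhouse; treatment 2–3 weeks after sowing, one-leaf stage. Aqueous suspension or emulsion from WP/EC sprayed on foliage (600–800 l/ha, 0.2% wetting agent). Readout: visual % action, ~3 weeks.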

ECHCG [9] = assay: Post-emergence herbicidal action against ECHCG; type: in vivo, Echinochloa crus-galli
In short: as §2

PHBPU [10] = assay: Post-emergence herbicidal action against PHBPU; type: in vivo, Pharbitis purpurea; conditions: dosage 20 g/ha
In short: as §2

MATIN [11] = assay: Post-emergence herbicidal action against MATIN; type: in vivo, Matricaria inodora; conditions: dosage 20 g/ha
In short: as §2

ABUTH [12] = assay: Post-emergence herbicidal action against ABUTH; type: in vivo, Abutilon theophrasti; conditions: dosage 20 g/ha, visual assessment about 3 weeks after treatment vs untreated controls
In short: as §2

SETVI [13] = assay: Post-emergence herbicidal action against SETVI; type: in vivo, Setaria viridis; conditions: dosage 20 g/ha
In short: as §2

DIGSA [14] = assay: Post-emergence herbicidal action against DIGSA; type: in vivo, Digitaria sanguinalis; conditions: 20 g/ha
In short: as §2

[15] = 20 g/ha, scored visually after 3 weeks vs untreated controls, 100% = plants have died, 0% = like control plants
[16] = 80 g/ha, scored visually after 3 weeks vs untreated controls (100% = plants have died, 0% = like control plants)

| Structure (SMILES) | Pre-emergence action against ABUTH (herbicidal activity) (ABUTH [1]) | Pre-emergence action against ABUTH (herbicidal activity in percent) (ABUTH [1]) | Pre-emergence action against ALOMY (herbicidal activity) (ALOMY) | Pre-emergence action against AMARE in % (AMARE [2]; [15]) | Pre-emergence action against AMARE in % (AMARE [2]; [16]) | Pre-emergence action against ECHCG in % (ECHCG [3]) | Pre-emergence action against MATIN in % (MATIN [4]; dosage 20 g/ha) | Pre-emergence action against MATIN in % (MATIN [4]; dosage 80 g/ha) | Pre-emergence action against PHBPU in % (PHBPU [5]) | Pre-emergence action against POLCO in % (POLCO) | Pre-emergence action against SETVI in % (SETVI [6]; dosage 80 g/ha) | Pre-emergence action against VERPE in % (VERPE) | Pre-emergence action against VIOTR in % (VIOTR; dosage 80 g/ha) | Pre-emergence action against DIGSA in % (DIGSA [7]; dosage 20 g/ha) | Pre-emergence action against DIGSA in % (DIGSA [7]; dosage 80 g/ha) | Post-emergence action at 20 g/ha against AMARE in % (AMARE [8]) | Post-emergence action against ECHCG in % (ECHCG [9]; dosage 5 g/ha) | Post-emergence action against ECHCG in % (ECHCG [9]; dosage 20 g/ha) | Post-emergence action against PHBPU in % (PHBPU [10]) | further results |
| --- | --- | --- | --- | --- | --- | --- | --- | --- | --- | --- | --- | --- | --- | --- | --- | --- | --- | --- | --- | --- |
| CCn1nnnc1NC(=O)c1ccc(C(F)(F)F)c(C(=O)NCCOC)c1Cl [Example 2-138] | 100% | 80% | 90% | 100% | 100% | 90% | 90% | 100% | 80% | 90% | 80% | 100% | 100% | 100% | 100% | 90% | 80% | 90% | 80% | Pre-emergence action against VIOTR in % (VIOTR; dosage 20 g/ha): 90% |
| CCn1nnnc1NC(=O)c1ccc(C(F)(F)F)c(C(=O)NCC2CCCO2)c1Cl (centres unmarked) [Example 2-141] |  |  | 90% | 100% | 100% | 80% | 80% | 90% | 80% | 80% | 100% |  | 90% |  | 90% | 80% |  | 80% | 80% | Pre-emergence action against SETVI in % (SETVI [6]; dosage 20 g/ha): 90% |
| CCn1nnnc1NC(=O)c1ccc(C(F)F)c(C(=O)NC2CCC2)c1Cl [Example 2-164] | 100% | 90% |  | 100% | 100% | 80% | 100% | 100% | 100% | 90% | 80% | 100% | 100% |  | 100% | 90% |  | 80% |  | Post-emergence action against MATIN in % (MATIN [11]): 80% |
| CCCNC(=O)c1c(C(F)F)ccc(C(=O)Nc2nnc(C)o2)c1Cl [Example 6-259] | 100% | 90% | 80% | 100% | 100% | 100% | 90% | 100% | 80% | 90% | 100% |  | 80% | 100% | 100% | 100% | 80% | 90% |  | Post-emergence action against ABUTH in % (ABUTH [12]): 80%; Post-emergence action against SETVI in % (SETVI [13]): 90%; Post-emergence action against DIGSA (DIGSA [14]): 90% |
